{"source": "patent US11524966B1", "about": "(Valo Early Discovery, Inc., priority 2017, dated 2022)"}
{"biological_target": "T1, USP25 (USP25-His6, Boston Biochem E-546) (Homo sapiens, UniProt Q9UHP3)", "T1 construct": "His6; purchased Boston Biochem E-546", "T1 sequence (Q9UHP3 1-1055)": "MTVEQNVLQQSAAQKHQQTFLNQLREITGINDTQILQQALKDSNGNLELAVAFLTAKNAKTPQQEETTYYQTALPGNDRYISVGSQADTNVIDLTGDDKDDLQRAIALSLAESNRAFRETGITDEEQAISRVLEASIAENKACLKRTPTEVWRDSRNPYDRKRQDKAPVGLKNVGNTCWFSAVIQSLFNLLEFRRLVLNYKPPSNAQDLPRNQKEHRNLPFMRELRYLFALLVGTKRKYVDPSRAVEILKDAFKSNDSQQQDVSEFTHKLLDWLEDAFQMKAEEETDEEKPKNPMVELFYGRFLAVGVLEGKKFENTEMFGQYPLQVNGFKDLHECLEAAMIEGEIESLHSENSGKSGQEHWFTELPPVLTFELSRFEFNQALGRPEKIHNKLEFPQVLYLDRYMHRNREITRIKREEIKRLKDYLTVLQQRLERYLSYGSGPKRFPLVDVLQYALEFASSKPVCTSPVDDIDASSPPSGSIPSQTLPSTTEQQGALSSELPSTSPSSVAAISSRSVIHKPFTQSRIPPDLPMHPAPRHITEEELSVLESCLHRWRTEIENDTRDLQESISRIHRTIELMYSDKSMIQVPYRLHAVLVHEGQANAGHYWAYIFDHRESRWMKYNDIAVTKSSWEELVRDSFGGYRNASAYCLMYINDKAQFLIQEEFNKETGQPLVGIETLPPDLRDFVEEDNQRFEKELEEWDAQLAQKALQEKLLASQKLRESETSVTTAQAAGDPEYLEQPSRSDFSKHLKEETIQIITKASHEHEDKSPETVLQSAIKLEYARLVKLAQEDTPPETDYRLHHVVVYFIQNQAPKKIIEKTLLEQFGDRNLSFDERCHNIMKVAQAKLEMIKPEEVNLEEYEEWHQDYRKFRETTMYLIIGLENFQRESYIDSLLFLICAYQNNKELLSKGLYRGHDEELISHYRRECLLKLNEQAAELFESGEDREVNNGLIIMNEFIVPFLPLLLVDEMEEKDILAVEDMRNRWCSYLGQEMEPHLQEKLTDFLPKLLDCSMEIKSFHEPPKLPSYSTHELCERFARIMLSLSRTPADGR", "experiment": "Ubiquitin-Rhodamine 110 Assay for USP25 Activity, Example A-2", "assay_type": "biochemical", "conditions": "Ubiquitin-Rhodamine 110 assay, Example A-2; read-out: USP25 A-2 IC50 range", "outline": "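Fluorescence (ex 485, em 535 nm) of cleaved ubiquitin-rhodamine 110 (25 nM, below Km) gave IC50 via 4-parameter logistic fit. Reaction: 45 min, room temperature, citric acid stop, after 30 min compound preincubation with 75 pM USP25-His6 in 20 mM Tris pH 8.0, 3 mM BME, 0.03% BGG, 0.01% Triton X-100; top dose 25 μM.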", "units": {"IC50": "nM"}}
{"smiles": "Cc1ccc2c(N)c(C(=O)N[C@H]3COc4cc(N5C[C@@H](N)[C@@H](F)C5)ccc4C3)sc2n1", "note": "(single isomer, unassigned) [Example 3-5]", "IC50": "200 to 2000"}
{"smiles": "Cc1ccc2c(N)c(C(=O)N[C@H]3COc4cc(N5C[C@@H](F)[C@@H](N)C5)ccc4C3)sc2n1", "note": "(single isomer, unassigned) [Example 3-6]", "IC50": "200 to 2000"}
{"smiles": "COC[C@@H]1CN(c2nc3c(cc2F)C[C@H](NC(=O)c2sc4nc(C)ccc4c2N)CC3)C[C@@H]1N", "note": "(single isomer, unassigned) [Example 302]", "IC50": "200 to 2000"}
{"smiles": "COC[C@H]1CN(c2nc3c(cc2F)C[C@H](NC(=O)c2sc4nc(C)ccc4c2N)CC3)C[C@H]1N", "note": "(single isomer, unassigned) [Example 303]", "IC50": "> 2000"}
{"smiles": "CO[C@H]1CCN(c2ccc3c(n2)CC[C@H](NC(=O)c2sc4nc(C)ccc4c2N)C3)C[C@@H]1N", "note": "(single isomer, unassigned) [Example 315]", "IC50": "200 to 2000"}
{"smiles": "CO[C@@H]1CCN(c2ccc3c(n2)CC[C@H](NC(=O)c2sc4nc(C)ccc4c2N)C3)C[C@H]1N", "note": "(single isomer, unassigned) [Example 316]", "IC50": "> 2000"}
{"smiles": "CCOC1CN(c2ccc3c(c2)OC[C@H](NC(=O)c2sc4nc(C)cc(C)c4c2N)C3)C[C@@H]1N", "note": "(stereo in doubt) [Example 323, 3-amino-N-[(3R)-7-[(3S,4R)-3-amino-4-ethoxypyrrolidin-1-yl]-3,4-dihydro-2H-1-benzopyran-3-yl]-4,6-dimethylthieno[2,3-b]pyridine-2-carboxamide]", "IC50": "50 to 200"}
{"smiles": "COC[C@@]1(C)CN(c2ccc3c(n2)CC[C@H](NC(=O)c2sc4nc(C)ccc4c2N)C3)CC1N", "note": "(stereo in doubt) [Example 343, 3-amino-N-[(6S)-2-[(3S,4S)-4-amino-3-(methoxymethyl)-3-methylpyrrolidin-1-yl]-5,6,7,8-tetrahydroquinolin-6-yl]-6-methylthieno[2,3-b]pyridine-2-carboxamide]", "IC50": "200 to 2000"}
{"smiles": "COC[C@H]1C[C@H](N)CN1c1ccc2c(c1)OC[C@H](NC(=O)c1sc3nc(C)ccc3c1N)C2", "note": "[Example 261, 3-amino-N-[(3R)-7-[(2R,4S)-4-amino-2-(methoxymethyl)pyrrolidin-1-yl]-3,4-dihydro-2H-1-benzopyran-3-yl]-6-methylthieno[2,3-b]pyridine-2-carboxamide]", "IC50": "50 to 200"}
{"smiles": "COC[C@H]1C[C@@H](N)CN1c1ccc2c(c1)OC[C@H](NC(=O)c1sc3nc(C)ccc3c1N)C2", "note": "[Example 262, 3-amino-N-[(3R)-7-[(2R,4R)-4-amino-2-(methoxymethyl)pyrrolidin-1-yl]-3,4-dihydro-2H-1-benzopyran-3-yl]-6-methylthieno[2,3-b]pyridine-2-carboxamide]", "IC50": "200 to 2000"}
{"smiles": "COC[C@@H]1C[C@H](N)CN1c1ccc2c(c1)OC[C@H](NC(=O)c1sc3nc(C)ccc3c1N)C2", "note": "[Example 263, 3-amino-N-[(3R)-7-[(2S,4S)-4-amino-2-(methoxymethyl)pyrrolidin-1-yl]-3,4-dihydro-2H-1-benzopyran-3-yl]-6-methylthieno[2,3-b]pyridine-2-carboxamide]", "IC50": "50 to 200"}
{"smiles": "N#Cc1c(N2CC3CCC(C2)N3)cc2c(c1F)C[C@@H](NC(=O)c1cnc3c(c1)[C@@H]1C[C@@H]1CN3)CO2", "note": "[Example 264, (6aS,7aR)-N-[(3R)-6-cyano-7-{3,8-diazabicyclo[3.2.1]octan-3-yl}-5-fluoro-3,4-dihydro-2H-1-benzopyran-3-yl]-5H,6H,6aH,7H,7aH-cyclopropa[c]1,8-naphthyridine-2-carboxamide]", "IC50": "1 to 50"}
{"smiles": "N#Cc1c(N2CC3CCC(C2)N3)cc2c(c1F)C[C@@H](NC(=O)c1cnc3c(c1)[C@H]1C[C@H]1CN3)CO2", "note": "[Example 265, (6aR,7aS)-N-[(3R)-6-cyano-7-{3,8-diazabicyclo[3.2.1]octan-3-yl}-5-fluoro-3,4-dihydro-2H-1-benzopyran-3-yl]-5H,6H,6aH,7H,7aH-cyclopropa[c]1,8-naphthyridine-2-carboxamide]", "IC50": "200 to 2000"}
{"smiles": "CO[C@H]1CN(c2ccc3c(n2)CC[C@H](NC(=O)c2sc4nc(C)cnc4c2N)C3)C[C@@H]1NC(C)=O", "note": "[Example 266, 7-amino-N-[(6S)-2-[(3S,4S)-3-acetamido-4-methoxypyrrolidin-1-yl]-5,6,7,8-tetrahydroquinolin-6-yl]-3-methylthieno[2,3-b]pyrazine-6-carboxamide]", "IC50": "> 2000"}
{"smiles": "CCO[C@@H]1CN(c2ccc3c(c2)CC[C@H](NC(=O)c2sc4nc(C)ccc4c2N)C3)C[C@@H]1N", "note": "[Example 267, 3-amino-N-[(2S)-6-[(3S,4R)-3-amino-4-ethoxypyrrolidin-1-yl]-1,2,3,4-tetrahydronaphthalen-2-yl]-6-methylthieno[2,3-b]pyridine-2-carboxamide]", "IC50": "200 to 2000"}
{"smiles": "CCO[C@H]1CN(c2ccc3c(c2)CC[C@H](NC(=O)c2sc4nc(C)ccc4c2N)C3)C[C@H]1N", "note": "[Example 268, 3-amino-N-[(2S)-6-[(3R,4S)-3-amino-4-ethoxypyrrolidin-1-yl]-1,2,3,4-tetrahydronaphthalen-2-yl]-6-methylthieno[2,3-b]pyridine-2-carboxamide]", "IC50": "> 2000"}
{"smiles": "CO[C@@H]1CN(c2ccc3c(n2)CC[C@H](NC(=O)c2sc4nc(C)ccc4c2N)C3)C[C@@H]1N", "note": "[Example 269, 3-amino-N-[(6S)-2-[(3S,4R)-3-amino-4-methoxypyrrolidin-1-yl]-5,6,7,8-tetrahydroquinolin-6-yl]-6-methylthieno[2,3-b]pyridine-2-carboxamide]", "IC50": "> 2000"}
{"smiles": "CO[C@H]1CN(c2ccc3c(n2)CC[C@H](NC(=O)c2sc4nc(C)ccc4c2N)C3)C[C@H]1N", "note": "[Example 270, 3-amino-N-[(6S)-2-[(3R,4S)-3-amino-4-methoxypyrrolidin-1-yl]-5,6,7,8-tetrahydroquinolin-6-yl]-6-methylthieno[2,3-b]pyridine-2-carboxamide]", "IC50": "> 2000"}
{"smiles": "COC[C@@H]1CN(c2ccc3c(c2)OC[C@H](NC(=O)c2sc4nc(C)cc(C)c4c2N)C3)C[C@@H]1N", "note": "[Example 275, 3-amino-N-[(3R)-7-[(3R,4R)-3-amino-4-(methoxymethyl)pyrrolidin-1-yl]-3,4-dihydro-2H-1-benzopyran-3-yl]-4,6-dimethylthieno[2,3-b]pyridine-2-carboxamide]", "IC50": "200 to 2000"}
{"smiles": "COC[C@H]1CN(c2ccc3c(c2)OC[C@H](NC(=O)c2sc4nc(C)cc(C)c4c2N)C3)C[C@H]1N", "note": "[Example 276, 3-amino-N-[(3R)-7-[(3S,4S)-3-amino-4-(methoxymethyl)pyrrolidin-1-yl]-3,4-dihydro-2H-1-benzopyran-3-yl]-4,6-dimethylthieno[2,3-b]pyridine-2-carboxamide]", "IC50": "50 to 200"}
{"smiles": "COC[C@@H]1CN(c2cc(F)c3c(c2F)OC[C@H](NC(=O)c2sc4nc(C)cc(C)c4c2N)C3)C[C@@H]1N", "note": "[Example 277, 3-amino-N-[(3R)-7-[(3R,4R)-3-amino-4-(methoxymethyl)pyrrolidin-1-yl]-5,8-difluoro-3,4-dihydro-2H-1-benzopyran-3-yl]-4,6-dimethylthieno[2,3-b]pyridine-2-carboxamide]", "IC50": "200 to 2000"}
{"smiles": "COC[C@H]1CN(c2cc(F)c3c(c2F)OC[C@H](NC(=O)c2sc4nc(C)cc(C)c4c2N)C3)C[C@H]1N", "note": "[Example 278, 3-amino-N-[(3R)-7-[(3S,4S)-3-amino-4-(methoxymethyl)pyrrolidin-1-yl]-5,8-difluoro-3,4-dihydro-2H-1-benzopyran-3-yl]-4,6-dimethylthieno[2,3-b]pyridine-2-carboxamide]", "IC50": "50 to 200"}
{"smiles": "CO[C@@]1(C)CN(c2ccc3c(n2)CC[C@H](NC(=O)c2sc4nc(C)cnc4c2N)C3)C[C@@H]1N", "note": "[Example 279, 7-amino-N-[(6S)-2-[(3S,4S)-4-amino-3-methoxy-3-methylpyrrolidin-1-yl]-5,6,7,8-tetrahydroquinolin-6-yl]-3-methylthieno[2,3-b]pyrazine-6-carboxamide]", "IC50": "> 2000"}
{"smiles": "CO[C@]1(C)CN(c2ccc3c(n2)CC[C@H](NC(=O)c2sc4nc(C)cnc4c2N)C3)C[C@H]1N", "note": "[Example 280, 7-amino-N-[(6S)-2-[(3R,4R)-4-amino-3-methoxy-3-methylpyrrolidin-1-yl]-5,6,7,8-tetrahydroquinolin-6-yl]-3-methylthieno[2,3-b]pyrazine-6-carboxamide]", "IC50": "> 2000"}
{"smiles": "CO[C@@]1(C)CN(c2ccc3c(c2)OC[C@H](NC(=O)c2sc4nc(C)ccc4c2N)C3)C[C@@H]1N", "note": "[Example 281, 3-amino-N-[(3R)-7-[(3S,4S)-4-amino-3-methoxy-3-methylpyrrolidin-1-yl]-3,4-dihydro-2H-1-benzopyran-3-yl]-6-methylthieno[2,3-b]pyridine-2-carboxamide]", "IC50": "200 to 2000"}
